Assay results reported in patent publication US6440421B1, “Treatment of bone disorders with adrenomedullin or adrenomedullin agonists” (Auchkland Uniservices Limited, priority 1996, dated 2002).
No end group written: not given here.

Key:
[1] = test system: fetal rat osteoblast-like cells; experiment: Osteoblast proliferation assay, cell counts; assay type: cell-based; conditions: for cell number relative to control osteoblasts: primary cultures of osteoblasts, final concentration of 1 nm
Experimental: (§1) Osteoblasts were isolated by collagenase digestion from 20-day fetal rat calvariae. The calvariae were then treated twice with phosphate buffered saline (PBS; Gibco, Grand Island, N.Y.) containing 3 Mm […] (EDTA; Sigma Chemical Co., St. Louis, Mo.) for 15 minutes at 37° C. in a shaking water bath. After washing once in PBS, 3 ml of 1 mg/ml collagenase (Sigma Chemical Co.) was added to the calvariae for 10 minutes at 37° C. After discarding the supernatant, the calvariae were treated twice with 2 mg/ml collagenase (30 mins, 37° C.). The supernatants were then centrifuged and the cells washed in Dulbecco's Modified Eagle's Medium (DMEM; Gibco Labs, Grand Island, N.Y.) with 10% fetal calf serum (FCS), suspended in further DMEM/10% FCS, and placed in […] flasks. The cells were incubated under 5% CO2 and 95% air at 37° C.
(§2) Confluence was reached by 5-6 days, at which time the cells were subcultured. After trypsinization using trypsin-EDTA (0.05%/0.53 […]; Gibco Labs, Grand Island, N.Y.), the cells were rinsed in Minimal Essential Medium (MEM; Gibco Labs) with 10% FCS and resuspended in MEM with 5% FCS, then seeded (10^5 cells/ml) in 24-well plates (0.5 ml cell suspension per well, i.e., 5×10^4 cells/well)
(§3) Cell proliferation studies (i.e., cell counts and thymidine incorporation) were performed both in actively-growing and growth-arrested cell populations. To produce actively-growing cells, subconfluent populations (24 hrs after subculturing) were changed to fresh MEM which contained 1% FCS and the test compounds. To produce growth-arrested cells, subconfluent populations were changed to serum-free medium with 0.1% bovine serum albumin plus the test compounds.
The effect of adrenomedullin on proliferation of fetal rat osteoblast-like cells was first assessed by the measurement of cell numbers. Cell counts were analyzed at 6, 24, and 48 hours after addition of the test compound or vehicle. The cell numbers were determined after removing cells from the wells by exposure to trypsin/EDTA (0.05%/0.53 Mm) for 5 minutes at 37° C. Counting was performed in a hemocytometer chamber. Results were expressed per well. […] This stimulation was maintained for at least 48 hours.

[2] = test system: fetal rat osteoblast-like cells; experiment: DNA synthesis, [3H]-thymidine incorporation into osteoblasts; assay type: cell-based; conditions: for thymidine incorporation: primary cultures of osteoblasts, 1 nm; for [3H]-thymidine incorporation: 10^−10M, 24 hours
Experimental: as §1, §2, §3
The effect of adrenomedullin on DNA synthesis in osteoblasts was then assessed by the measurement of [^3H]-thymidine incorporation into isolated fetal rat osteoblast-like cells. [^3H]-thymidine incorporation into actively-growing and growth-arrested cells was assessed by pulsing the cells with [^3H]-thymidine (1 μCi/ml) (Amersham, Arlington Heights, Ill.) two hours before the end of the experimental incubation. The experiment was terminated at 6, 24, or 48 hours by washing the cells in MEM with cold thymidine followed by 10% trichloroacetic acid. The precipitate was washed twice with ethanol:ether (3:1), and the wells were desiccated at room temperature. The residue was redissolved in 0.5 M KOH at 85° C. for 30 mins, neutralized with 1 M Hcl, and an aliquot counted for radioactivity. Results were expressed as cpm per well.

neonatal mouse calvariae [3] = experiment: Bone organ culture, bone resorption (45Ca release); assay type: cell-based; conditions: 48 hours, concentrations of 10−7 M to 10^−10 M
Experimental: (§4) Bone resorption studies were carried out in neonatal mouse calvariae as previously described (Reid, et al., Endocrinology 126:1416-1420 (1990)). Mice were injected subcutaneously with 5 μCi ^45Ca (Amersham) at 2 days of age, and hemi-calvariae were dissected out 4 days later. Hemi-calvariae were pre-incubated for 24 hours in medium 199 (Gibco BRL, Grand Island, N.Y.) with 0.1% bovine serum albumin, then changed to fresh medium containing adrenomedullin or control vehicle. Incubation was continued for a further 48 hours. In the last 4 hours of incubation [^3H]-thymidine was incorporated into the organ cultures as described previously (Lowe, et al., Calif. Tissue Int. 49-394-397 (1991)). There were 5-7 calvariae in each group.

neonatal mouse calvariae [4] = experiment: Bone organ culture, [3H]-thymidine incorporation; assay type: cell-based; conditions: 48 hours, 10−7 M to 10^−10 M, same experiments
Experimental: as §4

adult mouse calvariae = experiment: Local effects on bone histology in vivo, histomorphometry of hemicalvariae
Experimental: The local effects of adrenomedullin on bone histology in vivo were assessed in adult mice using a previously described model (Cornish et al., Endocrinology 132:1359-1366, 1993). Sexually mature male ARC Swiss Webster mice aged between 40 and 50 days and weighing […] were given injections (25 μl) over the periosteum of the right hemicalvariae for 5 consecutive days. […] The animals were maintained on a low calcium diet (0.1%) from 5 days prior to the first injection. […] These doses were chosen based on experience with other bone-active peptides in this model. Animals in the control group (n=16) were injected with vehicle (water) only. All animals were sacrificed 1 week following the last injection. The study had the approval of the local institutional review board.
The calvariae were dissected free of soft tissue, and gross morphology was assessed by examination of the intact calvariae under a dissection microscope. Bone tissue was fixed in 10% phosphate-buffered formalin, dehydrated in a graded series of ethanol solutions and embedded undecalcified in methyl methacrylate resin. Sections (4 μm thick) were cut on a Leitz rotary microtome (Leica Instruments, Nussloch, Germany) using a tungsten-carbide knife, then mounted on gelatin-coated slides and air-dried. The sections were stained with a Goldner tri-chrome stain and examined using an Olympus BX 50 microscope (Olympus Optical Co Ltd, Tokyo, Japan) which was attached to an Osteomeasure Image Analyzer (Osteometrics Inc., Atlanta, Ga.). Histomorphometric analyzes were made of three adjacent fields (using a 20× objective) in each hemicalvaria.
The parameters assessed are as defined by the American Society for Bone and Mineral Research (Parfitt et al. J. Bone Miner. Res. 2:595-610, (1987)), and are expressed per mm of calvarial length. Osteoblasts were defined as cells immediately adjacent to osteoid. Osteoclast numbers included only multinucleated cells. The various surface estimates were based on measurements of both periosteal and intramembranous surfaces: those eroded by osteoclasts (eroded perimeter), those immediately adjacent to osteoclasts (osteoclast perimeter), and those immediately adjacent to osteoblasts (osteoblast perimeter). The precision of these histomorphometric measurements in these studies (expressed as coefficients of variation of paired. measurements) are as follows: mineralized bone area 1.3%, osteoid area 6.9%, osteoblast perimeter 6.8%, osteoblast number 1.7%, eroded perimeter 6.7%, osteoclast perimeter 7.9%, osteoclast number <1.0%, and calvarial length 0.2%. All measurements were made by one operator who was blinded to the treatment group of each bone.
In the in vivo experiment, the primary end-point for each histomorphometric index was the determination of whether it was different in the injected right hemicalvaria from the contralateral, uninjected bone of the same animal. The absolute values of each histomorphometric index are presented for the injected and uninjected hemicalvariae by treatment group in Tables 1-3. […] Tables 1-3. Effects of Adrenomedullin on Histomorphometric Indices in Adult Mouse Calvariae in vivo*

[5] = Injected hemicalvaria, Adrenomedullin 4 × 10^−10 mol, mean, per mm of calvarial length
[6] = Uninjected hemicalvaria, Adrenomedullin 4 × 10^−10 mol, mean, per mm of calvarial length
[7] = in the presence of adrenomedullin

Substance: ADM(28-40) (HQIYQFTDKDKDN; listed as Homo sapiens) [adrenomedullin fragment, residues 28-40]
- cell number relative to control osteoblasts [1]: statistically significant increase
- thymidine incorporation [2]: increased

Substance: ADM(32-52) (QFTDKDKDNVAPRSKISPQGY; listed as Homo sapiens) [adrenomedullin fragment, residues 32-52]
- cell number relative to control osteoblasts [1]: statistically significant increase
- thymidine incorporation [2]: increased

Substance: adrenomedullin
- 45Ca release from prelabeled calvariae (neonatal mouse calvariae [3]): no significant change
- [3H]-thymidine incorporation (neonatal mouse calvariae [4]): significantly increased
- duration for which stimulation of cell number was maintained ([1]; 1% FCS, actively-growing cells): at least 48 hours
- adrenomedullin concentration at which a significant increase in cell number was observed ([1]; 24 hours, 1% FCS, actively-growing cells): ≥ 10^−12 M
- increase in actively-growing osteoblasts (cell number) ([1]; 24 hours, medium containing 1% FCS, actively-growing cells): dose-dependent increase
- [3H]-thymidine incorporation ([2]; actively-growing cells): significantly stimulated
- [3H]-thymidine incorporation ([2]; growth-arrested cells): significantly stimulated
- Bone Area (adult mouse calvariae; [5]): 0.128
- Eroded Pm (adult mouse calvariae; [5]): 0.67
- Number of Obs (adult mouse calvariae; [5]): 105
- Number of Ocs (adult mouse calvariae; [5]): 5.0
- Ob Perimeter (adult mouse calvariae; [5]): 0.33
- Oc Pm (adult mouse calvariae; [5]): 0.15
- Osteoid Area (adult mouse calvariae; [5]): 0.0032
- Periosteal Area (adult mouse calvariae; [5]): 0.012
- Periosteal Area (adult mouse calvariae; P=0.54): not changed
- Bone Area (adult mouse calvariae; [6]): 0.114
- Eroded Pm (adult mouse calvariae; [6]): 0.67
- Number of Obs (adult mouse calvariae; [6]): 61
- Number of Ocs (adult mouse calvariae; [6]): 4.4
- Ob Perimeter (adult mouse calvariae; [6]): 0.56
- Oc Pm (adult mouse calvariae; [6]): 0.12
- Osteoid Area (adult mouse calvariae; [6]): 0.0012
- Periosteal Area (adult mouse calvariae; [6]): 0.011
- indices of osteoblast activity, ratio of injected to uninjected halves of each calvaria (adult mouse calvariae; either dose of adrenomedullin, 5 daily local injections): two- to three-fold increases
- increase of mineralized bone area (adult mouse calvariae; higher dose of adrenomedullin): 13.6%
- eroded perimeter, upward trend, ratio of injected to uninjected (adult mouse calvariae; [7]): significant
- resorption indices, ratio of injected to uninjected (adult mouse calvariae; [7]): slight upward trends

Substance: adrenomedullin(27-52) (AHQIYQFTDKDKDNVAPRSKISPQGY-NH2; listed as Homo sapiens) [fragment of adrenomedullin, residues 27-52, carboxyl terminal amidated]
- cell number relative to control osteoblasts [1]: statistically significant increase
- thymidine incorporation [2]: increased
